Consider one molecule from US20060122240A1, “Benzotriazoles and methods of prophylaxis or treatment of metabolic-related disorders thereof” (Arena Pharmaceuticals, Inc., priority 2002, published 2006).

“Also recorded” adds a separate entry of the source. Like-named read-outs stand apart in the source and are kept apart here.

Assay type in all cases: cell-based
In experiment [1] the target is T1, hRUP38 (Homo sapiens, UniProt P49019).
T1 construct: expressed in transfected cells
Briefly: Adenylyl cyclase / cAMP Whole Cell assay in CHO cells stably transfected with hRUP38. On the procedure: A modified Flash Plate™ Adenylyl Cyclase kit (New England Nuclear; Cat. No. SMP004A) was utilized for direct identification of candidate compounds as agonists to hRUP38 (Seq. Id. Nos. 1 & 2) or hRUP25 (Seq. Id. Nos. 3 & 4) in accordance with the following protocol:
CHO cells stably transfected with hRUP38 were harvested from flasks via non-enzymatic means. The cells were washed in PBS and resuspended in the manufacturer's Assay Buffer. […] To these wells, 100,000 cells in 50 μl of Assay Buffer were added and the mixture was then incubated for 30 minutes at room temperature, with gentle shaking. Following the incubation, 100 μl of Detection Buffer was added to each well, followed by incubation for 2-24 hours. Plates were counted in a Wallac MicroBeta™ plate reader using “Prot. #31” (as per manufacturer instructions).

Experiment [2] addresses T2, hRUP25 (Homo sapiens, UniProt Q8TDS4).
T2 construct: expressed in transfected cells; host or cells: CHO cells
The experiment is described as follows: Adenylyl cyclase assay in CHO cells expressing hRUP25. The conditions noted are these: FIG. 1 screening data. From the text: FIG. 1. FIG. 1 presents screening data via adenylyl cyclase assay for hRUP38. […] 1-Isopropyl-1H-benzotriazole-5-carboxylic acid has no effect on CHO cells expressing hRUP25.
A modified Flash Plate™ Adenylyl Cyclase kit (New England Nuclear; Cat. No. SMP004A) was utilized for direct identification of candidate compounds as agonists to hRUP38 (Seq. Id. Nos. 1 & 2) or hRUP25 (Seq. Id. Nos. 3 & 4) in accordance with the following protocol: […]

Experiment [3] has as its system primary human adipocytes. The experiment is described as follows: Inhibition of isoproterenol stimulated lipolysis in human subcutaneous adipocytes. The conditions noted are these: isoproterenol 100 nM, adipocyte primary cultures from human subcutaneous fat, FIG. 2.

T1 sequence (P49019 whole entry K94N/T173P/F198L/H253R/I317M/I346M): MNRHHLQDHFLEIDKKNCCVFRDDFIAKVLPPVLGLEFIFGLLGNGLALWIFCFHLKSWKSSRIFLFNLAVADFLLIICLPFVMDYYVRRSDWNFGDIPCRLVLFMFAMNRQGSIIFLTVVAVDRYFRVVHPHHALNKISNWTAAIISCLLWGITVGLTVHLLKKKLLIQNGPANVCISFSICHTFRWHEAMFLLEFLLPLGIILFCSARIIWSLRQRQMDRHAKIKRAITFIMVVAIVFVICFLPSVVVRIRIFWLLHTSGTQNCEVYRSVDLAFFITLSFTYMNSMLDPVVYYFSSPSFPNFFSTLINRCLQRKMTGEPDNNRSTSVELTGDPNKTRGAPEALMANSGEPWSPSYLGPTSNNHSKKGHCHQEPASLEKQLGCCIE
T2 sequence (Q8TDS4 whole entry): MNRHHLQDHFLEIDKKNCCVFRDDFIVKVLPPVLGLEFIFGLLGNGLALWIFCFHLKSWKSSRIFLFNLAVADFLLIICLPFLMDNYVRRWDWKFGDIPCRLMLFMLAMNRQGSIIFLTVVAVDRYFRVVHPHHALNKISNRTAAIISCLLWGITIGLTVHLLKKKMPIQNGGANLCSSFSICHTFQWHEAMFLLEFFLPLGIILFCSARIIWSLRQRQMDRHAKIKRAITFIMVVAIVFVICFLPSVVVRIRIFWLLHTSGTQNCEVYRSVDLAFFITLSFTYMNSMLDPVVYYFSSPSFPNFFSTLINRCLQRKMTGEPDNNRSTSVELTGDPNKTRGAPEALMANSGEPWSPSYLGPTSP

As for `CC(C)n1nnc2cc(C(=O)O)ccc21` [Example 6.1, 1-Isopropyl-1H-benzotriazole-5-carboxylic acid], the EC50 (in general, the concentration that produces a half-maximal response) in experiment [1] (average of seven (7) trials, read-out: hRUP38 (EC50) cAMP Whole Cell) came to 388 nM; in experiment [1] (inhibition of forskolin stimulated cAMP, hRUP38-expressing CHO cells, read-out: EC50, adenylyl cyclase assay for hRUP38 (FIG. 1)) it was 166 nM. The “effect on CHO cells expressing hRUP25” value in experiment [2] is given as “no effect”. In experiment [3], the “inhibition of isoproterenol stimulated lipolysis” value is “dose-dependent manner comparable to that of nicotinic acid; also recorded: dose-dependant manner comparable to that of nicotinic acid”.
